“And” between values parts separate entries of the source, which are not always exact repeats. Identical values can stand only once. Like-named read-outs stand apart in the source and are kept apart here. Marks after values point to notes of the source that are not given here.
Legend:
[1] = system: ISMR1: isometamidium-resistant T. brucei cell line; assay: microbe, parasite or virus in culture; type: cell-based, Trypanosoma brucei brucei
Experimental: (§1) Drug susceptibility tests with Lister 427WT, TbAT1-KO[48], B48[26] and ISMR1[27] were performed using an assay based on the viability indicator dye resazurin in 96-well plates, each well containing 2 × 10^4 cells. The plates were incubated for 48 h with a doubling dilution series of the test compounds in HMI-9/fetal bovine serum at 37 °C/5% CO2 (23 dilutions starting at 100 µM, except for the pentamidine control (50 µM)), after which resazurin (20 µL of 125 µg mL^−1 resazurin sodium salt solution was added to each well (containing 200 µL of cells and test compound)) was added to each well and the plates incubated for another 24 h. Fluorescence was determined using a FLUOstar Optima (BMG Labtech, Durham, NC) and the results fitted to a sigmoid curve with variable slope using Prism 5.0 or Prism 7.04 (GraphPad, San Diego, CA).

[2] = system: TbAT1-KO: T. brucei cell line lacking the TbAT1(P2) transporter gene; assay: microbe, parasite or virus in culture; type: cell-based, Trypanosoma brucei brucei
Experimental: as §1

[3] = system: T. brucei Squib 427; assay: microbe, parasite or virus in culture; type: cell-based, Trypanosoma brucei brucei
Experimental: as §1
(§2) Susceptibility assays with T. brucei Squib 427[49] or T. b. rhodesiense STIB-900[50] were performed under similar conditions as above, but using 10 concentrations of a 4-fold compound dilution series starting at 64 µM. Trypanosoma brucei Squib 427 was seeded at 1.5 × 10^4 parasites/well and T. b. rhodesiense at 4 × 10^3 parasites per well, followed by the addition of resazurin (final concentration of 10 µg mL^−1) after 24 h (T. brucei) or 6 h (T. b. rhodesiense).

[4] = system: B48: pentamidine, diminazene and melaminophenyl arsenical resistant T. brucei line; assay: microbe, parasite or virus in culture; type: cell-based, Trypanosoma brucei brucei
[5] = system: T. b. rhodesiense STIB-900; assay: microbe, parasite or virus in culture; type: cell-based, Trypanosoma brucei rhodesiense
Experimental: as §1, §2

[6] = Cytotoxicity on MRC-5 fibroblasts (resazurin); type: cell-based, human; conditions: human, MRC-5SV2 human embryonic lung fibroblasts, source data; read-out: MRC-5 EC50, single measurements
Experimental: (§3) Cytotoxicity assays were performed on MRC-5SV2 (Sigma-Aldrich/ECACC, catalogue number 84100401) human embryonic lung fibroblasts, which were cultured in minimum essential medium with Earle’s salt medium, supplemented with L-glutamine, NaHCO3 and 5% inactivated foetal calf serum. All cultures and assays were conducted at 37 °C with 5% CO2. Ten microliters of the aqueous compound dilutions were added to 190 µL of MRC-5SV2 (3 × 10^4 cells mL^−1). Cell growth was compared to untreated control wells (100% cell growth) and medium control wells (0% cell growth). After a 3-day incubation, cell viability was assessed fluorimetrically after the addition of 50 μL resazurin per well (final concentration of 10 µg mL^−1). After 4 h at 37 °C, fluorescence was measured (λex 550 nm, λem 590 nm). The results were expressed as percentage reduction in cell growth/viability compared to control wells and an EC50 was determined.

[7] = system: MRC-5SV2 human embryonic lung fibroblasts; assay: Cytotoxicity on MRC-5 fibroblasts (resazurin); type: cell-based; conditions: source data; read-out: MRC-5 EC50, single measurements
Experimental: as §3

[8] = system: T. b. brucei Lister 427WT; assay: Drug susceptibility test (resazurin), Lister 427WT; type: cell-based, Trypanosoma brucei brucei
Experimental: as §1

[9] = resistance factor vs Lister 427WT

`Nc1ncnc2c1c(Br)cn2[C@H]1C[C@H](O)[C@@H](CO)O1` [Compound 12, 7-Br-2′-deoxy-TUB] gave an EC50 ([1]; Trypanosoma brucei, mean and SEM, n = 3, read-out: ISMR1 EC50) of 920 ± 120 nM, an EC50 ([1]; Trypanosoma brucei, source data, read-out: ISMR1 EC50, AVG) of 919 nM and an EC50 ([1]; Trypanosoma brucei, source data, read-out: ISMR1 EC50, single determinations) of 1150 nM. For the same molecule, the “RF (ISMR1)” value [1, 9] was 2.93**, the EC50 ([1]; source data, read-out: ISMR1 EC50, single determinations) was 731 nM and 876 nM and the EC50 ([2]; Trypanosoma brucei, read-out: TbAT1-KO EC50, AVG, source data) was 758 nM. The EC50 ([2]; Trypanosoma brucei, read-out: TbAT1-KO EC50, mean and SEM, n = 3) was 760 ± 180 nM, the EC50 ([2]; Trypanosoma brucei, read-out: TbAT1-KO EC50, single determinations, source data) was 940 nM and the EC50 ([2]; read-out: TbAT1-KO EC50, single determinations, source data) was 576 nM and 850 nM. The “RF (TbAT1-KO)” value ([2]; resistance factor: ratio of EC50 of resistant and Lister 427WT) was 2.37*, the EC50 ([3]; Trypanosoma brucei, Alamar blue cell viability assay, mean and SEM, read-out: T. b. brucei EC50) was 460 ± 80 nM and the EC50 ([3]; Trypanosoma brucei, source data, read-out: T. brucei brucei EC50, Average) was 460 nM. For the same molecule, the EC50 ([3]; Trypanosoma brucei, source data, read-out: T. brucei brucei EC50, single measurements) was 382 nM, the “SI (MRC/T.b. brucei)” value ([3]; selectivity index) was 13 and the EC50 ([3]; source data, read-out: T. brucei brucei EC50, single measurements) was 533 nM. The EC50 ([4]; Trypanosoma brucei, mean and SEM, n = 3, read-out: B48 EC50) was 830 ± 160 nM, the EC50 ([4]; Trypanosoma brucei, source data, read-out: B48 EC50, AVG) was 827 nM and the EC50 ([4]; Trypanosoma brucei, source data, read-out: B48 EC50, single determinations) was 990 nM. For the same molecule, the “RF (B48)” value [4, 9] was 2.64**, the EC50 ([4]; source data, read-out: B48 EC50, single determinations) was 664 nM and 844 nM and the EC50 ([5]; Trypanosoma brucei, RHODESIENSE, Alamar blue cell viability assay, mean and SEM, read-out: T. b. rhodesiense EC50) was 120 ± 10 nM. For the same molecule, the EC50 ([5]; Trypanosoma brucei, RHODESIENSE, source data, read-out: T. brucei rhodesiense EC50, Average) was 120 nM, the EC50 ([5]; Trypanosoma brucei, RHODESIENSE, source data, read-out: T. brucei rhodesiense EC50, single measurements) was 116 nM and the “SI (MRC/T.b. rhodesiense)” value ([5]; selectivity index) was 50. The EC50 ([5]; source data, read-out: T. brucei rhodesiense EC50, single measurements) was 126 nM, the EC50 at 3 day [6] was 6830 nM and the EC50 [7] was 5370 nM. For the same molecule, the EC50 ([8]; Trypanosoma brucei, mean and SEM, n = 3, read-out: Lister 427 EC50) was 310 ± 63 nM, the EC50 ([8]; Trypanosoma brucei, source data, read-out: s427 EC50, AVG) was 313 nM and the EC50 ([8]; Trypanosoma brucei, source data, read-out: s427 EC50, single determinations) was 376 nM. The EC50 ([8]; source data, read-out: s427 EC50, single determinations) was 251 nM and 355 nM.
